Reference: PMC3504108 (PLoS ONE, 2012)

Assays:
[1] = biological target: T1, Sirt5 (Homo sapiens, UniProt Q9NXA8); assay: X-ray crystal structure ([…] Å, ternary with FdL1 peptide; ligand occupancy […]), plus deacetylase activation assays; assay type: binding
T1 construct: catalytic core, residues 34–302
T1 sequence (Q9NXA8 34-302): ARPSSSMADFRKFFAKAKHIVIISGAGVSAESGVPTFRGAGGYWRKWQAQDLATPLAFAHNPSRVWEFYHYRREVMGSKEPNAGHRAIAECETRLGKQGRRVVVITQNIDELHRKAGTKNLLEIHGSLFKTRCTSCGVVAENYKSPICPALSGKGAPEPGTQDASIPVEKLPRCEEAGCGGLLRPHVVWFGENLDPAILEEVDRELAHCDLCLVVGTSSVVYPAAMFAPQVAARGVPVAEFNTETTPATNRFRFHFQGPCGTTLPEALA

[2] = biological target: T1, Sirt5; assay: FdL1 fluorogenic deacetylation assay (activation dose-response); assay type: biochemical
[3] = biological target: T2, Sirt3 (Homo sapiens, UniProt Q9NTG7); assay: X-ray crystal structure ([…] Å, ternary with FdL1 peptide), plus FdL2 deacetylation inhibition; assay type: binding
T2 construct: catalytic core, residues 118–399
T2 sequence (Q9NTG7 118-399): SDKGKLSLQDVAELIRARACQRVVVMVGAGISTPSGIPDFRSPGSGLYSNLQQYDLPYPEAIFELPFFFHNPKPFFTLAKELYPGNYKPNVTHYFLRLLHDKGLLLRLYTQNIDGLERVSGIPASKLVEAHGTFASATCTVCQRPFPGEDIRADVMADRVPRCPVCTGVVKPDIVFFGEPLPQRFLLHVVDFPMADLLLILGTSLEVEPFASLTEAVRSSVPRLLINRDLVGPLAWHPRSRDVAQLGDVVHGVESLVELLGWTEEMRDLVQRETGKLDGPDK

[4] = biological target: T3, Sirt3 (Homo sapiens, UniProt Q9NTG7); assay: ELISA-based deacetylation assay (Figure S3B); assay type: biochemical
T3 sequence (Q9NTG7 102-399): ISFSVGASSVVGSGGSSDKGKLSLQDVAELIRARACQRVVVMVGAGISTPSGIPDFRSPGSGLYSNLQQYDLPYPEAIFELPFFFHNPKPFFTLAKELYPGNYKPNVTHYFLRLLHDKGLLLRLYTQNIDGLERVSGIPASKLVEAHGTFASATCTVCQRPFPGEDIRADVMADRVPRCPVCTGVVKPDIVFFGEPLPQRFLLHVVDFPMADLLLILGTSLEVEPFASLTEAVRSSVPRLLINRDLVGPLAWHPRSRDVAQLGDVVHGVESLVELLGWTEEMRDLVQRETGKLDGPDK

[5] = biological target: T1, Sirt5; assay: ELISA-based deacetylation assay (weak inhibition, Figure S3B); assay type: biochemical
[6] = biological target: T1, Sirt5; assay: Cytochrome c deacetylation ELISA (activation, Figure S3A); assay type: biochemical

## Oc1ccc(/C=C/c2cc(O)cc(O)c2)cc1 [resveratrol]
[1]
  X-ray crystal structure (2.6 Å, ternary with FdL1 peptide); ligand occupancy ~50%: Co-ordinates and structure factors of Sirt5 in complex with FdL1-peptide and resveratrol

## Oc1cc(O)cc(/C=C/c2ccc(O)c(O)c2)c1 [piceatannol]
[2]
  EC50: 70 ± 20 µM
[3]
  X-ray crystal structure (2.3 Å, ternary with FdL1 peptide), plus FdL2 deacetylat: we also solved the crystal structure of Sirt3 in complex with FdL1-peptide and piceatannol

## O=c1c(O)c(-c2ccc(O)c(O)c2)oc2cc(O)ccc12 [fisetin]
[4]
  ELISA-based deacetylation assay (Figure S3B): only fisetin shows a weak inhibitory effect on Sirt5 and significant inhibition of Sirt3 in an ELISA-based deacetylation assay
[5]
  ELISA-based deacetylation assay (weak inhibition, Figure S3B): only fisetin shows a weak inhibitory effect on Sirt5

## OCCc1ccc(O)cc1 [tyrosol, 4-(2-hydroxyethyl)phenol]
[6]
  Cytochrome c deacetylation ELISA (activation, Figure S3A): activates Sirt5 in a Cytochrome c deacetylation assay (see below, Figure S3A)
